Assay results taken from US20120269799A1, “DIAGNOSTIC AND TREATMENT METHODS USING A LIGAND LIBRARY” (priority 2011, published 2012).

System: anti-DNP antibody
Assay: Competition between free ethanolamine-DNP and DNP on a plate
Type: binding
Settings: 1,000 ug/mL sera concentration
Protocol: The Mean fluorescence intensity (MFI) separation was greatest at the higher dilution of 1,000 ug/mL sera.

Structure (SMILES): O=[N+]([O-])c1ccc(NCCO)c([N+](=O)[O-])c1 [ethanolamine-DNP]
- competition with the binding of DNP (on a plate) to anti-DNP antibody: direct competition
